The text below walks through data of ChEMBL document CHEMBL5331104, “Discovery of BRD4-HDAC Dual Inhibitors with Improved Fungal Selectivity and Potent Synergistic Antifungal Activity against Fluconazole-Resistant Candida albicans” (J Med Chem, 2023).

Values after ≈ are worked out from the molar mass of the structure shown. Active and inactive are the calls of the source. No cut-off for these calls is given here.

Experiment [1] deals with Candida albicans. Kind of experiment: Synergetic antifungal activity against Candida albicans 0304103 assessed as microbial growth inhibition incubated for 24 hrs in the presence of (S,E)-N-Hydroxy-3-(4-(2-(l-methyl-6-phenyl-4H-benzo[f][1,2,4]-triazolo[4,3-a][1,4]diazepin-4-y1)acetamido)phenyl)acrylamide by checkerboard microdilution method. The experiment is classed as functional.

Experiment [2] deals with Candida albicans. Kind of experiment: Synergetic antifungal activity against Candida albicans 0304103 assessed as microbial growth inhibition incubated for 24 hrs in the presence of (S)-N-Hydroxy-4-((2(1-methyl-6-phenyl-4H-benzor[f](1,2,4)-triazolo-[4,3-a][1,4]diazepin 4-yl)acetamido)methyl)benzamide by checkerboard microdilution method. The experiment is classed as functional.

The test system of experiment [3] is Candida albicans. Kind of experiment: Antifungal activity against Candida albicans 0304103 assessed as reduction in yeast to hypha transition at 32 ug/mL incubated for 2 hrs by inverse fluorescence microscopy. The experiment is classed as functional, organism-based. As to conditions: dose 32.0 µg/ml.
The subject of experiment [4] is Cryptococcus neoformans. Kind of experiment: Synergetic antifungal activity against Cryptococcus neoformans 011405 assessed as microbial growth inhibition incubated for 24 hrs in the presence of (S)-4-((2-(6-(4-Chlorophenyl)-1-methyl-7,8,9,10-tetrahydro-4H-benzo-(4,5)thieno[3,2-f][1,2,4]triazolo(4,3-a)(1,4)diazepin-4-yl)-acetamido)-methyl)-N-hydroxybenzamide by checkerboard microdilution method. Format: functional. In general terms: In broth dilution the organism is exposed to a series of concentrations in liquid medium.

Experiment [5] relates to Candida albicans. The experiment can be described thus: Synergetic antifungal activity against Candida albicans 0304103 assessed as microbial growth inhibition incubated for 24 hrs in the presence of (S)-N-Hydroxy-4-((2-(1-methyl-6-(p-toly1)-4H-benzo[f](1,2,4)-triazolo-(4,3-a][1,4]diazepin-4-y1)acetamido)methyl)benzamide by checkerboard microdilution method. Format: functional.

Experiment [6] deals with Nakaseomyces glabratus. The experiment can be described thus: Synergetic antifungal activity against Candida glabrata 4408 assessed as microbial growth inhibition incubated for 24 hrs in the presence of (S)-4-((2-(6-(4-Chlorophenyl)-1-methyl-7,8,9,10-tetrahydro-4H-benzo-(4,5)thieno[3,2-f][1,2,4]triazolo(4,3-a)(1,4)diazepin-4-yl)-acetamido)-methyl)-N-hydroxybenzamide by checkerboard microdilution method. Format: functional.

The test system of experiment [7] is Cryptococcus neoformans. Kind of experiment: Antifungal activity against Cryptococcus neoformans H99 assessed as fungal growth inhibition incubated for 24 hrs by broth dilution method. The experiment is classed as functional.
Experiment [8] deals with Candida albicans. The experiment can be described thus: Downregulation of GCA1 expression in Candida albicans 0304103 at 32 ug/mL incubated for 24 hrs by RT q-PCR analysis. As to conditions: dose 32.0 µg/ml. The experiment is classed as functional.
The test system of experiment [9] is Candida albicans. The experiment can be described thus: Synergetic antifungal activity against Candida albicans 0304103 assessed as microbial growth inhibition incubated for 24 hrs in the presence of (S)-4-(2-(6-(4-Chlorophenyl)-1-methyl-7,8,9,10-tetrahydro-4Hbenzo-[4,5]thieno(3,2-f)(1,2,4)triazolo(4,3-a)[1,4]diazepin-4-yl)-acetamido)-N-hydroxybenzamide by checkerboard microdilution method. The experiment is classed as functional.

The subject of experiment [10] is Candida albicans. Kind of experiment: Antifungal activity against Candida albicans SC5314 assessed as fungal growth inhibition incubated for 24 hrs by broth dilution method. Format: functional.
For experiment [11], the system named is Candida albicans. Kind of experiment: Synergetic antifungal activity against Candida albicans 0304103 assessed as microbial growth inhibition incubated for 24 hrs in the presence of (S)-2-(6-(4-Chlorophenyl)-1-methyl-7,8,9,10-tetrahydro-4H-benzo-(4,5)thieno[3,2-f][1,2,4]triazolo(4,3-a)(1,4)diazepin-4-yl)-N-(4-(2-(hydroxyamino)-2-oxoethyl)phenyl)acetamide by checkerboard microdilution method. Format: functional.

Experiment [12] deals with Candida albicans. Kind of experiment: Synergetic antifungal activity against Candida albicans 0304103 assessed as microbial growth inhibition incubated for 24 hrs in the presence of (S,E)-3-(4-(2-(8-Chloro-6-(2-chlorophenyl)-1-methyl-4H-benzo-[f][1,2,4]triazolo[4,3-a](1,4)diazepin-4-yl)acetamido)pheny1)-N-hydroxy-acrylamide by checkerboard microdilution method. Format: functional.

Experiment [13] deals with Candida albicans. The experiment can be described thus: Downregulation of ERG11 expression in Candida albicans 0304103 at 32 ug/mL incubated for 24 hrs by RT q-PCR analysis. As to conditions: dose 32.0 µg/ml. The experiment is classed as functional.
For experiment [14], the system named is Candida albicans. Kind of experiment: Synergetic antifungal activity against Candida albicans 0304103 assessed as microbial growth inhibition incubated for 24 hrs in the presence of (S)-4-(2-(6-(4-Chloropheny1)-1-methy1-4H-benzo(f)(1,2,4)-triazolo(4,3-a)[1,4]diazepin-4-yl)acetamido)methyl)-N-hydroxybenzamide by checkerboard microdilution method. Format: functional.

The subject of experiment [15] is Candida albicans. Kind of experiment: Downregulation of CDR1 expression in Candida albicans 0304103 at 32 ug/mL incubated for 24 hrs by RT q-PCR analysis. Format: functional. As to conditions: dose 32.0 µg/ml.
In experiment [16] the test system is Candida albicans. The experiment can be described thus: Antifungal activity against Candida albicans 10061 assessed as microbial growth inhibition. The experiment is classed as functional.
The test system of experiment [17] is [Candida] auris. The experiment can be described thus: Antifungal activity against Candida auris 0029 assessed as microbial growth inhibition. The experiment is classed as functional. As to conditions: Candidozyma auris.
Experiment [18] relates to Candida albicans. The experiment can be described thus: Downregulation of MDR1 expression in Candida albicans 0304103 at 32 ug/mL incubated for 24 hrs by RT q-PCR analysis. The experiment is classed as functional. As to conditions: dose 32.0 µg/ml.
The subject of experiment [19] is [Candida] auris. The experiment can be described thus: Synergetic antifungal activity against Candida auris 0029 assessed as microbial growth inhibition incubated for 24 hrs in the presence of (S)-4-((2-(6-(4-Chlorophenyl)-1-methyl-7,8,9,10-tetrahydro-4H-benzo-(4,5)thieno[3,2-f][1,2,4]triazolo(4,3-a)(1,4)diazepin-4-yl)-acetamido)-methyl)-N-hydroxybenzamide by checkerboard microdilution method. The experiment is classed as functional. The settings on record: Candidozyma auris.

In experiment [20] the test system is Candida albicans. The experiment can be described thus: Synergetic antifungal activity against Candida albicans 0304103 assessed as microbial growth inhibition incubated for 24 hrs in the presence of (S)-4-((2-(6-(4-Chlorophenyl)-1-methyl-7,8,9,10-tetrahydro-4H-benzo-(4,5)thieno[3,2-f][1,2,4]triazolo(4,3-a)(1,4)diazepin-4-yl)-acetamido)-methyl)-N-hydroxybenzamide by checkerboard microdilution method. The experiment is classed as functional.

For experiment [21], the system named is Candida albicans. Kind of experiment: Synergetic antifungal activity against Candida albicans 0304103 assessed as microbial growth inhibition incubated for 24 hrs in the presence of SAHA by checkerboard microdilution method. Format: functional.

A word on the MIC80: it is an inhibitory concentration at the 80% level, which refers to growth in some studies and to a panel of isolates in others.

As for `OC(Cn1cncn1)(Cn1cncn1)c1ccc(F)cc1F` [FLUCONAZOLE], the MIC80 was found to be 2 µg/mL in [1]; 1 µg/mL in experiment [2]; 2 µg/mL in [4]; 1 µg/mL in [5]; 2 µg/mL in [6]; 1 µg/mL (≈ 3.27 µM) in experiment [7]. For the same molecule, the MIC80 in [9] was 1 µg/mL; in experiment [10], 0.5 µg/mL (≈ 1.63 µM); in experiment [11], 0.5 µg/mL; in experiment [12], 0.5 µg/mL; in [14], 2 µg/mL; in [16], > 64 µg/mL. Also, the MIC80 in [17] was > 64 µg/mL; in experiment [19], 64 µg/mL; in [20] it was 2 µg/mL; in [21], 4 µg/mL. The outcome in [3], in experiment [13], in experiment [15] and in experiment [18] was inactive. Also, the result in [8] was Active.
